Values of other authors as cited in patent publication US10188772B2, “Drug delivery medical device” (Micell Technologies, Inc., priority 2012, dated 2019).

Biological target: FKBP12 (Homo sapiens, UniProt P62942)
Sequence (P62942 whole entry, species assumed): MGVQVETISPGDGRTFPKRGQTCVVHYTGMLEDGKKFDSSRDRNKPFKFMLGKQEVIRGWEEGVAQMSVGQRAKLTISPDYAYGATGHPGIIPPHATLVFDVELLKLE

Row | SMILES | FKBP12 binding
1 | CO[C@H]1C[C@@H]2CC[C@@H](C)[C@@](O)(O2)C(=O)C(=O)N2CCCC[C@H]2C(=O)O[C@H]([C@H](C)C[C@@H]2CC[C@@H](OCCO)[C@H](OC)C2)CC(=O)[C@H](C)/C=C(\C)[C@@H](O)[C@@H](OC)C(=O)[C@H](C)C[C@H](C)/C=C/C=C/C=C/1C [Everolimus, 40-O-(2-Hydroxyethyl)rapamycin] | 1.8 to 2.6 nM
2 | CC[C@@H]1/C=C(\C)C[C@H](C)C[C@H](OC)[C@H]2O[C@@](O)(C(=O)C(=O)N3CCCC[C@H]3C(=O)O[C@H](/C(C)=C/[C@@H]3CC[C@H](Cl)[C@H](OC)C3)[C@H](C)[C@@H](O)CC1=O)[C@H](C)C[C@@H]2OC [Pimecrolimus] | about 1.2 nM
3 | C=CC[C@@H]1/C=C(\C)C[C@H](C)C[C@H](OC)[C@H]2O[C@@](O)(C(=O)C(=O)N3CCCC[C@H]3C(=O)O[C@H](/C(C)=C/[C@@H]3CC[C@@H](O)[C@H](OC)C3)[C@H](C)[C@@H](O)CC1=O)[C@H](C)C[C@@H]2OC [Tacrolimus] | 0.2 to 0.4 nM
4 | CO[C@H]1C[C@@H]2CC[C@@H](C)[C@@](O)(O2)C(=O)C(=O)N2CCCC[C@H]2C(=O)O[C@H]([C@H](C)C[C@@H]2CC[C@@H](OC(=O)C(C)(CO)CO)[C@H](OC)C2)CC(=O)[C@H](C)/C=C(\C)[C@@H](O)[C@@H](OC)C(=O)[C@H](C)C[C@H](C)/C=C/C=C/C=C/1C [Temsirolimus, 42-[3-hydroxy-2-(hydroxymethyl)-2-methylpropanoate]rapamycin] | about the same as Sirolimus
5 | CO[C@H]1C[C@@H]2CC[C@@H](C)[C@@](O)(O2)C(=O)C(=O)N2CCCC[C@H]2C(=O)O[C@H]([C@H](C)C[C@@H]2CC[C@H](n3cnnn3)[C@H](OC)C2)CC(=O)[C@H](C)/C=C(\C)[C@@H](O)[C@@H](OC)C(=O)[C@H](C)C[C@H](C)/C=C/C=C/C=C/1C [Zotarolimus] | 2.0 to 3.2 nM
